Data from ChEMBL document CHEMBL1158222, “Antiinflammatory C-glucosyl chromone from Aloe barbadensis” (1996).
The source made the active and inactive calls. The rule behind the calls is not given here.

Tests used:
[1] = organism: Mus musculus; test: Antiinflammatory activity against croton oil-induced ear inflammation in BALB/c mouse at 200 ug/ear after 6 to 24 hrs; assay type: functional, organism-based
[2] = organism: Mus musculus; test: Reduction in thymus weight in BALB/c mouse at 400 ug/ear; assay type: functional, organism-based
[3] = organism: Mus musculus; test: Reduction in thymus weight in BALB/c mouse at 200 ug/ear; assay type: functional; design: scale not given: the % may be the effect or the level left

| Compound | Activity [1] | Activity [2] | Activity [3] |
| --- | --- | --- | --- |
| COc1cc(C)c2c(=O)cc(C[C@@H](C)O)oc2c1[C@@H]1O[C@H](CO)[C@@H](O)[C@H](O)[C@H]1OC(=O)/C=C/c1ccccc1 | Active | inactive |  |
| C[C@]12CCC(=O)C=C1CC[C@@H]1[C@@H]2[C@@H](O)C[C@@]2(C)[C@H]1CC[C@]2(O)C(=O)CO [HYDROCORTISONE] | Active |  | 50% |
